{"source": "patent US12521425B2", "about": "“Method of liver cancer treatment with safranal-based formulations” (priority 2019, dated 2026)", "key": {"HepG2 cells [1]": {"system": "HepG2 cells", "test": "Western blotting of safranal-treated cells", "type": "cell-based", "description": "Western blotting. HepG2 cells were seeded at a density of 1×10^6 cells/100 mm plate and allowed to attach before being treated with safranal. Cells were treated with 500 μM of safranal for different time intervals (6-48 hours) for time-dependent experiments. Whole cell lysates were separated using 10-15% SDS polyacrylamide gel electrophoresis. Proteins were transferred onto PVDF membranes prior to incubation with various primary antibodies p-histone H3, Cdc2, Cyclin B1, CDC25B, p21, p53, H2AX, p-H2AX, TOP1, TDP1, Cleaved PARP1, PCNA, HDAC1, HDAC2, Cleaved Caspase-9, Cleaved Caspase-8, Bax, Bcl-2, GRP78, ATF6, IRE1, PERK, p-eIF2S1, […], and CHOP. GAPDH, β-actin, and α-Tubulin were used as loading controls. Protein bands were detected using WesternSure Chemiluminescent Substrate (LI-COR) and C-DiGit blot scanner (LI-COR)."}, "HepG2 cells [2]": {"system": "HepG2 cells", "test": "Colony formation assay", "type": "cell-based", "details": "HepG2, 30-100 μM for 24 hours", "description": "Colony formation. HepG2 cell were seeded at a density of 1000 cells/6-well plate, and left to incubate for 24 hours to allow attachment before being treated with different concentrations of safranal (30, 50, 100 μM) for 24 hours. After which, culture media containing safranal was replaced by fresh growth media without safranal. Culture media was replenished every 3 days, until visible colonies were formed. Colonies were fixed with absolute methanol, then stained with 0.5% crystal violet. Colonies were then imaged and analyzed using ImageJ plugin ColonyArea. Results are represented as the percent of area occupied by colonies. To confirm, an absorption-based method was carried out to validate results obtained from ImageJ. Briefly, stained colonies were treated with 10% acetic acid solution to dissolve the crystal violet stain. After which, 100 μL of each triplicate sample was transferred to a 96-well plate (in triplicates), and absorbance was measured using an Epoch microplate spectrophotometer (BioTek). *p≤0.05, **p≤0.001, ***p≤0.0001"}, "[3]": {"system": "DEN-induced hepatic neoplasia", "test": "Western blotting of liver in DEN-induced HCC model", "type": "in vivo, male Wistar rats", "details": "liver of HCC rats", "description": "A modified version of the protocol described by DePeralta et al. (2016) and Schiffer et al. (2005) was used here to establish the hepatocarcinogenesis model.\nOn the first 15 weeks, the control PBS group was treated with 1×PBS, whereas the experimental groups were given an intraperitoneal injection (IP) of 50 mg/kg of diethylnitrosoamine (DEN, Sigma Aldrich), a widely used chemical for inducing cancer, once a week. DEN was diluted with 1×PBS. Following a one-week break (week 16), the next three weeks (weeks 17 to 19) of treatment commenced. All drugs were administrated by oral gavage. All doses were chosen according to literature (Alsaied et al., 2014; Karafakioglu et al., 2017). For the HCC+sorafenib group, the drug (Carbosynth Limited) was administered at a dose of 10 mg/kg, five days a week. For the HCC+safranal group, the drug (Sigma Aldrich) was administered at a dose of 200 mg/kg, five days a week. For the HCC+safranal+sorafenib group, the drugs were administered at a dose of 200 mg/kg safranal+10 mg/kg sorafenib, five days a week. Both safranal and sorafenib were diluted with 1×PBS and drops of Tween 80. […] After 24-hours from last treatment, the rats were euthanized by mild diethyl ether and dissected in equal conditions. Blood and whole liver were collected.\nOne hundredth gm (10 mg) liver was homogenized using 200 μl RIPA buffer (Sigma Aldrich) mixed with 2 μl protease inhibitor and 2 μl phosphatase inhibitor (Sigma Aldrich), and centrifuged at 4° C., 15,000 rpm for 15 minutes. Whole cell lysate was taken and stored at −80° C. Protein concentration was measured by Pierce BCA Protein Assay Kit with Promega GloMax Discover. A total of 35 μg of protein was loaded on a sodium dodecyl sulfate-polyacrylamide gel electrophoresis gel. The gel was then transferred to polyvinylidene difluoride membrane. The membrane was then blocked with 5% BSA in TBST for one hour at room temperature. Membranes were incubated with anti-Proliferating Cell Nuclear Antigen (PCNA), anti-PolyADP-ribose Polymerase (PARP), anti-caspase-3 (Cell Signaling Technology Inc.), anti-caspase-9 (Novus Biologicals), anti-Bax, anti-Bcl-2 (Santa Cruz), anti-Cdk1, anti-Cyclin B1, anti-Cdc25B (Cell Signaling Technology Inc.) over night at 4° C., then with HRP conjugated secondary, anti-mouse or anti-rabbit, antibody (Cell Signaling Technology Inc.) for one hour at room temperature. All primary and secondary antibodies were diluted in 5% BSA in TBST. Blots were incubated in WesternSure PREMIUM Chemiluminescent Substrate for antibodies' detection. Signal was visualized using Bio-Rad ChemiDoc XRS+System. Band density and quantification was done using ImageJ (Amin et al., 2011). Total protein was used as a loading control and stained using SYPRO Ruby protein gel stain according to the protocol provided (Thermo Fisher Scientific) (Aldridge et al., 2008; Hu et al., 2016)."}, "HepG2 cells [4]": {"system": "HepG2 cells", "test": "Cell cycle analysis by flow cytometry", "type": "cell-based", "details": "HepG2, 500 μM; for fraction of subG1 cells: DMSO control 0.9%", "description": "Cell cycle analysis. HepG2 cells were seeded at density of 3×10^6 cells per flask in complete growth medium and were allowed to attach overnight. After which, cells were treated with 500 μM of safranal for different time intervals (6-48 hours). At the indicated time intervals, cells were collected by incubation with trypsin and washed twice with PBS. Collected cells were fixed in 70% ethanol, treated with RNase and stained with propidium iodide. Cell cycle distribution was analyzed by flow cytometry in a FACS scan (Becton Dickenson, Germany)."}, "HepG2 cells [5]": {"system": "HepG2 cells", "test": "Annexin V binding assay", "type": "cell-based", "details": "HepG2, 500 μM, after 48 hours; increase from 8%"}}, "data": [{"smiles": "CC1=C(C=O)C(C)(C)CC=C1", "note": "[safranal]", "values": [{"measurement": "HDAC1 expression", "setting": "HepG2 cells [1]; HepG2, 500 μM", "value": "inhibited"}, {"measurement": "HDAC2 expression", "setting": "HepG2 cells [1]; HepG2, 500 μM", "value": "remained unchanged"}, {"measurement": "Cdc2 expression", "setting": "HepG2 cells [1]; HepG2, 500 μM, 6-48 hours", "value": "inhibit Cdc2 expression starting at 12 hours"}, {"measurement": "H2AX expression", "setting": "HepG2 cells [1]; HepG2, 500 μM, 6-48 hours", "value": "remained unchanged"}, {"measurement": "expression of Cyclin B1 and CDC25B", "setting": "HepG2 cells [1]; HepG2, 500 μM, 6-48 hours", "value": "inhibiting expression of Cyclin B1 and CDC25B starting at 6 hours"}, {"measurement": "expression of phosphorylated histone H3", "setting": "HepG2 cells [1]; HepG2, 500 μM, 6-48 hours", "value": "inhibited dramatically"}, {"measurement": "p-H2AX (DNA damage marker)", "setting": "HepG2 cells [1]; HepG2, 500 μM, 6-48 hours", "value": "observed starting at 6 hours"}, {"measurement": "proliferation marker PCNA", "setting": "HepG2 cells [1]; HepG2, 500 μM, 6-48 hours", "value": "inhibition"}, {"measurement": "CHOP/DDIT3 and phosphorylated eIF2α", "setting": "HepG2 cells [1]; HepG2, 500 μM, up to 48 hours", "value": "upregulated"}, {"measurement": "expression of p21", "setting": "HepG2 cells [1]; HepG2, 500 μM, up to 48 hours", "value": "inhibited"}, {"measurement": "expressions of GRP78 and of p27", "setting": "HepG2 cells [1]; HepG2, 500 μM, up to 48 hours", "value": "induced"}, {"measurement": "main sensors of UPR, PERK, MEL and ATF6", "setting": "HepG2 cells [1]; HepG2, 500 μM, up to 48 hours", "value": "general upregulation trend"}, {"measurement": "TDP1 level", "setting": "HepG2 cells [1]; HepG2, 6, 12, 24, 48 hours", "value": "lower levels"}, {"measurement": "TOP1 level", "setting": "HepG2 cells [1]; HepG2, 6, 12, 24, 48 hours", "value": "higher levels"}, {"measurement": "caspase-8 cleavage", "setting": "HepG2 cells [1]; HepG2, time-based", "value": "cleaved starting at 24 hours"}, {"measurement": "caspase-9 cleavage", "setting": "HepG2 cells [1]; HepG2, time-based", "value": "cleaved starting at 12 hours"}, {"measurement": "ratio of Bax to Bcl-2", "setting": "HepG2 cells [1]; HepG2, time-based", "value": "increased"}, {"measurement": "colony formation", "setting": "HepG2 cells [2]", "value": "inhibited colony formation of HepG2 cells in a dose-dependent manner"}, {"measurement": "Bax/Bcl-2 ratio", "setting": "[3]", "value": "favored the apoptotic effect"}, {"measurement": "TDP1 levels", "setting": "[3]", "value": "lower levels of TDP1"}, {"measurement": "expression of pro-caspases-9 & 3 and whole PARP", "setting": "[3]; compared to HCC group", "value": "significantly decreased"}, {"measurement": "expression of anti-apoptotic protein Bcl-2", "setting": "[3]; compared to HCC groups", "value": "decreased"}, {"measurement": "expression of pro-apoptotic protein Bax", "setting": "[3]; compared to HCC groups", "value": "increased"}, {"measurement": "Cdk1, cyclin B1, Cdc25B levels", "setting": "[3]; comparing to HCC animals", "value": "significantly decreased their levels"}, {"measurement": "PCNA (proliferation-related protein)", "setting": "[3]; n=4", "value": "significantly downregulated PCNA"}, {"measurement": "cell cycle distribution", "setting": "HepG2 cells [4]; 6 and 12 hours post treatment", "value": "G2/M phase arrest"}, {"measurement": "cell cycle distribution", "setting": "HepG2 cells [4]; 24 hours", "value": "S-phase arrest"}, {"measurement": "fraction of subG1 cells", "setting": "HepG2 cells [4]; after 24 hours", "value": 6.3, "unit": "%"}, {"measurement": "fraction of subG1 cells", "setting": "HepG2 cells [4]; after 48 hours", "value": 26.2, "unit": "%"}, {"measurement": "number of dead cells (annexin V)", "setting": "HepG2 cells [5]", "value": 31, "unit": "%"}]}]}
